From the kinase profiling compilation of Christmann-Franck et al. (2016)
“And” between values parts separate entries of the source, which are not always exact repeats. Equal entries are not always repeated.

Tests used:
Assay in all cases: Caliper, Mobility shift assay off-chip
[1] = biological target: ROCK1 (human) (UniProt Q13464)
[2] = biological target: PGK1 (human) (UniProt P00558)
[3] = biological target: FLT4 (human) (UniProt P35916)
[4] = biological target: NEK1 (human) (UniProt Q96PY6)
[5] = biological target: STK24 (human) (UniProt Q9Y6E0)
[6] = biological target: PRKX (human) (UniProt P51817)
[7] = biological target: JAK3 JH1 JH2 (human) (UniProt P52333)
[8] = biological target: CDK9 (human) (UniProt P50750)
[9] = biological target: IRAK4 (human) (UniProt Q9NWZ3)
[10] = biological target: NEK4 (human) (UniProt P51957)
[11] = biological target: PTK6 (human) (UniProt Q13882)
[12] = biological target: PLK3 (human) (UniProt Q9H4B4)
[13] = biological target: PRKCB1 (human) (UniProt P05771)
[14] = biological target: MERTK (human) (UniProt Q12866)
[15] = biological target: TEC (human) (UniProt P42680)
[16] = biological target: MAPK3 (human) (UniProt P27361)
[17] = biological target: IRAK1 (human) (UniProt P51617)
[18] = biological target: CHEK1 (human) (UniProt O14757)
[19] = biological target: CAMK1D (human) (UniProt Q8IU85)
[20] = biological target: CDK4 (human) (UniProt P11802)
[21] = biological target: MKNK1 (human) (UniProt Q9BUB5)
[22] = biological target: CHEK2 (human) (UniProt O96017)
[23] = biological target: MET (human) (UniProt P08581)
[24] = biological target: GSG2 (human) (UniProt Q8TF76)
[25] = biological target: LATS2 (human) (UniProt Q9NRM7)
[26] = biological target: PIM3 (human) (UniProt Q86V86)
[27] = biological target: PRKCQ (human) (UniProt Q04759)
[28] = biological target: MAPKAPK5 (human) (UniProt Q8IW41)
[29] = biological target: NEK2 (human) (UniProt P51955)
[30] = biological target: CSNK2A2 (human) (UniProt P19784)
[31] = biological target: PRKD1 (human) (UniProt Q15139)
[32] = biological target: HIPK2 (human) (UniProt Q9H2X6)

Chain of MAPKAPK5 (human) (Q8IW41 whole entry, looked up): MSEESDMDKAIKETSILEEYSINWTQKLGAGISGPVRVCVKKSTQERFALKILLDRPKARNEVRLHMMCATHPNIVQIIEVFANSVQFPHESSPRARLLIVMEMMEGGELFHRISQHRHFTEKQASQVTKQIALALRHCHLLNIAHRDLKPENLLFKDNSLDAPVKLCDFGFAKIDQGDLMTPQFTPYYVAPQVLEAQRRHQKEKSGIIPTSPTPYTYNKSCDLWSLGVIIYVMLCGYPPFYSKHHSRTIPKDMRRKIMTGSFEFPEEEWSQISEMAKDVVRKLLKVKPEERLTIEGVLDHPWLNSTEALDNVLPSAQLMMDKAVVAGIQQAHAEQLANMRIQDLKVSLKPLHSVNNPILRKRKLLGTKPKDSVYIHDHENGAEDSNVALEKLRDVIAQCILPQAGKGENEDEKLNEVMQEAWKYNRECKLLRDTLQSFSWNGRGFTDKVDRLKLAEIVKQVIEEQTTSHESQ
Chain of ROCK1 (human) (Q13464 whole entry, looked up): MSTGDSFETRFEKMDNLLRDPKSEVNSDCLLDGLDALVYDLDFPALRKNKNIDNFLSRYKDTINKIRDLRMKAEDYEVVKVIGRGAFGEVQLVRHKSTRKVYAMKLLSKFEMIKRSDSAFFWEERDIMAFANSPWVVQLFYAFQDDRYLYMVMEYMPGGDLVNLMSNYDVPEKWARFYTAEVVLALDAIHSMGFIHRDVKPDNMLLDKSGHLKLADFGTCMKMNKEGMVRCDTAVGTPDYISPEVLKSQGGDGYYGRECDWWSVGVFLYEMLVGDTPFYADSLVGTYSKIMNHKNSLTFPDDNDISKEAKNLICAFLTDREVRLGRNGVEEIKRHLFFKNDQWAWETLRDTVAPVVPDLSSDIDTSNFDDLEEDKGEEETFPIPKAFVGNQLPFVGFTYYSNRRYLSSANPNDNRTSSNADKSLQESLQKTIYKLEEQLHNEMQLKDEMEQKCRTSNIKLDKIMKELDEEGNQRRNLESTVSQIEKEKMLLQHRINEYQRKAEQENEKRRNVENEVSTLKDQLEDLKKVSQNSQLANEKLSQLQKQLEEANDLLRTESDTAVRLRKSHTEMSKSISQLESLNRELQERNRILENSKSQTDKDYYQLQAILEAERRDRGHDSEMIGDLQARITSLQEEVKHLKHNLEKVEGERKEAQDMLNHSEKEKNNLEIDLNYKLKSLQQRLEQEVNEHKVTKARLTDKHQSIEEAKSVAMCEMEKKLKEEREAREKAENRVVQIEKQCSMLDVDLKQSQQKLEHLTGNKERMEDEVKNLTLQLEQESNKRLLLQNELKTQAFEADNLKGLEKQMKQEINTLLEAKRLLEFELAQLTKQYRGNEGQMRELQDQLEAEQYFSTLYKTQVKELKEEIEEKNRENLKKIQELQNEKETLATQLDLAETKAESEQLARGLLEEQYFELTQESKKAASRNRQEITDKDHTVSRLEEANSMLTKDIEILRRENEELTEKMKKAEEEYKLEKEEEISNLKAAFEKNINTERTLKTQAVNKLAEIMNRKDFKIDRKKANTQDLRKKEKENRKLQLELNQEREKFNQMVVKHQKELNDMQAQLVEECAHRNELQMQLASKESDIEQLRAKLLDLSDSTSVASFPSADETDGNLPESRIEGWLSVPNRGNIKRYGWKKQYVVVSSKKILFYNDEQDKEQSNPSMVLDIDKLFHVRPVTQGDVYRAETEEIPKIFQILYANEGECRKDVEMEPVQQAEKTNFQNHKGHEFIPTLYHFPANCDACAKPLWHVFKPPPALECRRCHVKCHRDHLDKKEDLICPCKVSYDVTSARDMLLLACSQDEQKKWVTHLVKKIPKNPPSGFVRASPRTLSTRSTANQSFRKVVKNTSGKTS
Chain of PRKX (human) (P51817 whole entry, looked up): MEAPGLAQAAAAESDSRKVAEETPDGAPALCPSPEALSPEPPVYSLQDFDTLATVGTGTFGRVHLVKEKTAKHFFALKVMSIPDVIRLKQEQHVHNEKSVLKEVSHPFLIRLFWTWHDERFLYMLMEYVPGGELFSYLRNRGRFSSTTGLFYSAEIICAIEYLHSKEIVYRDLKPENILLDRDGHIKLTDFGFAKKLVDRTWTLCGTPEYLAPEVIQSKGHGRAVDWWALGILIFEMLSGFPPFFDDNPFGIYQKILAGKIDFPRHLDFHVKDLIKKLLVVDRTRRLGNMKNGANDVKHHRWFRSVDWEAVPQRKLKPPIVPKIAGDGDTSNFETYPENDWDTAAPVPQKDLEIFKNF
Chain of PTK6 (human) (Q13882 whole entry, looked up): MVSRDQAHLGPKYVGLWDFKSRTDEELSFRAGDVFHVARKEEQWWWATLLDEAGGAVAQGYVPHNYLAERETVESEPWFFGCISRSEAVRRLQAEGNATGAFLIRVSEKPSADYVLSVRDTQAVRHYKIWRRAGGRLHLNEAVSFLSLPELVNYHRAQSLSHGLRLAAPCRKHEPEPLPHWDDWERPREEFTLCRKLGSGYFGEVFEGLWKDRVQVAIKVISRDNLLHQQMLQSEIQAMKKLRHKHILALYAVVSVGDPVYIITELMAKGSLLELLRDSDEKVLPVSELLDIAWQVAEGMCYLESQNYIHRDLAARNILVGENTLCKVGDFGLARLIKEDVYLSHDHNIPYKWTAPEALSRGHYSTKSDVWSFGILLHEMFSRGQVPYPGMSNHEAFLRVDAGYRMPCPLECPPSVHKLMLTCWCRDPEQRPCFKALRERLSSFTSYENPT
Chain of PLK3 (human) (Q9H4B4 whole entry, looked up): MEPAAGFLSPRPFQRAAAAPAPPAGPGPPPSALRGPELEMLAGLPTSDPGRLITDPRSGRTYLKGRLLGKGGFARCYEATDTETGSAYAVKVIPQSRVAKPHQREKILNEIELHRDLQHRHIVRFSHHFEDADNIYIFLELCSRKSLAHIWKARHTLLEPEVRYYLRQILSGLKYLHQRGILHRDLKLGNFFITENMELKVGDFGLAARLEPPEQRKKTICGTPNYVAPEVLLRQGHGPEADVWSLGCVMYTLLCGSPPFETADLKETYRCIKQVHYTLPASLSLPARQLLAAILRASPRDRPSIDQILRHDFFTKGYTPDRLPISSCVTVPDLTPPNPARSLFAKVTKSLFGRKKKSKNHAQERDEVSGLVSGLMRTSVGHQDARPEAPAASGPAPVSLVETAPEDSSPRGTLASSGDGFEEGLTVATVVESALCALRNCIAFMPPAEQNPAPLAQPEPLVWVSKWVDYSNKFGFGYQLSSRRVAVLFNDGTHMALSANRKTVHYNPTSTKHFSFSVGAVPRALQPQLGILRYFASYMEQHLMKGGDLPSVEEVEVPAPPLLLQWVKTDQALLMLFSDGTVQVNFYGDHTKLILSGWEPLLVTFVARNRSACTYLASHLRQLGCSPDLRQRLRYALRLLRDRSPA
Chain of CHEK2 (human) (O96017 whole entry, looked up): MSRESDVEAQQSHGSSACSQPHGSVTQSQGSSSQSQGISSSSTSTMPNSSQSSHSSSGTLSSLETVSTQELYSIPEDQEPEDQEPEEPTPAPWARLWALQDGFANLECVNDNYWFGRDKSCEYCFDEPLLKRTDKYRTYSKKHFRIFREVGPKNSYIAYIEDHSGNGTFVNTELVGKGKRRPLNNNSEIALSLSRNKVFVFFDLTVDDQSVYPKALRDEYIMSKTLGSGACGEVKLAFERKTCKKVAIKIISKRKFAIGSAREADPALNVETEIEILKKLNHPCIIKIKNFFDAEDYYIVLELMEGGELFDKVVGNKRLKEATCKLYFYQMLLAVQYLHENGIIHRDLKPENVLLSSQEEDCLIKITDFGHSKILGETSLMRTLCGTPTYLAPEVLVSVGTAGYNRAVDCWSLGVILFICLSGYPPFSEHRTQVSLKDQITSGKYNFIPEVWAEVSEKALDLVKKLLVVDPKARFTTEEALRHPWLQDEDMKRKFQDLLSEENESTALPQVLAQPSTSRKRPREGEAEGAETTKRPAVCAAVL
Chain of PRKCQ (human) (Q04759 whole entry, looked up): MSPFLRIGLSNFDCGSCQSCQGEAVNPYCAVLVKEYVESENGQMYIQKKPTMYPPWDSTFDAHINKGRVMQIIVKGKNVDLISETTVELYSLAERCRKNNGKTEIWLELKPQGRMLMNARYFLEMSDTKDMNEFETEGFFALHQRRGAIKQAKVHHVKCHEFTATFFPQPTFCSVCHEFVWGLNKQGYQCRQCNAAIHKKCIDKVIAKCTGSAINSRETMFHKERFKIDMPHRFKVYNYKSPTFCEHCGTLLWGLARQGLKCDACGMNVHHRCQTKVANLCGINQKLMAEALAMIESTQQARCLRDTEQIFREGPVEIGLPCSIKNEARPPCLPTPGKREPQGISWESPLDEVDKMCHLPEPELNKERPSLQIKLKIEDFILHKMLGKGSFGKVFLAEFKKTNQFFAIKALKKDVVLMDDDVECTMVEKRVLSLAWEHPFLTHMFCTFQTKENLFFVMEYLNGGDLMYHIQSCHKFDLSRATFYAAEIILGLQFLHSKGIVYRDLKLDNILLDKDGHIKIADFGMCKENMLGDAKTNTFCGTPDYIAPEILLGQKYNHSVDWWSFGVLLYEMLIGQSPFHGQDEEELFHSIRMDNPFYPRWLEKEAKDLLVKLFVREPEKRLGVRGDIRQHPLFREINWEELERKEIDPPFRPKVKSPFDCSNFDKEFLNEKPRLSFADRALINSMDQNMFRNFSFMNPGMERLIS
Chain of CDK4 (human) (P11802 whole entry, looked up): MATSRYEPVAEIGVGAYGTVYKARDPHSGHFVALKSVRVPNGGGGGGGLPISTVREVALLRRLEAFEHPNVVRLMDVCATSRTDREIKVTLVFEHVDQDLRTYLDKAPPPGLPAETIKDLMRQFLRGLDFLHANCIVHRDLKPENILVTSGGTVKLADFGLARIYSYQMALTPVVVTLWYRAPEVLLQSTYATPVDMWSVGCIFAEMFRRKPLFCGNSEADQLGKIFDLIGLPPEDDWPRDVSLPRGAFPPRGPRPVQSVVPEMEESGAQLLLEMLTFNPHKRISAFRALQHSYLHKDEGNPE

CNC(=O)c1cc(Oc2ccc(NC(=O)Nc3ccc(Cl)c(C(F)(F)F)c3)cc2)ccn1
inhibition ([1]; compound 0.02 µM): -1.1%
inhibition ([1]; compound 0.2 µM): 6.8%
inhibition ([2]; compound 0.02 µM): -6.2%
inhibition ([2]; compound 0.2 µM): 1.9%
inhibition ([3]; compound 0.02 µM): 61.6%
inhibition ([3]; compound 0.2 µM): 98.5%
inhibition ([4]; compound 0.02 µM): -5.2%
inhibition ([4]; compound 0.2 µM): -6.3%
inhibition ([5]; compound 0.02 µM): -3.9%
inhibition ([5]; compound 0.2 µM): 5.6%
inhibition ([6]; compound 0.02 µM): -7%
inhibition ([6]; compound 0.2 µM): 0.2%
inhibition ([7]; compound 0.02 µM): -3.6%
inhibition ([7]; compound 0.2 µM): 8.1%
inhibition ([8]; compound 0.02 µM): -7.5%
inhibition ([8]; compound 0.2 µM): -6.7%
inhibition ([9]; compound 0.02 µM): -5.9%
inhibition ([9]; compound 0.2 µM): -4.6%
inhibition ([10]; compound 0.02 µM): -3%
inhibition ([10]; compound 0.2 µM): -0.8%
inhibition ([11]; compound 0.02 µM): -0.9%
inhibition ([11]; compound 0.2 µM): -0.8%
inhibition ([12]; compound 0.02 µM): 4%
inhibition ([12]; compound 0.2 µM): 5.3%
inhibition ([13]; compound 0.02 µM): -0.2% and -0.6%
inhibition ([13]; compound 0.2 µM): 22% and 17.2%
inhibition ([14]; compound 0.02 µM): -3.5%
inhibition ([14]; compound 0.2 µM): 10.2%
inhibition ([15]; compound 0.02 µM): -6.3%
inhibition ([15]; compound 0.2 µM): 9.4%
inhibition ([16]; compound 0.02 µM): -2.3%
inhibition ([16]; compound 0.2 µM): -0.7%
inhibition ([17]; compound 0.02 µM): -4%
inhibition ([17]; compound 0.2 µM): -7.2%
inhibition ([18]; compound 0.02 µM): -2.7%
inhibition ([18]; compound 0.2 µM): 5.3%
inhibition ([19]; compound 0.02 µM): -6.7%
inhibition ([19]; compound 0.2 µM): 3.1%
inhibition ([20]; compound 0.02 µM): -2.3%
inhibition ([20]; compound 0.2 µM): -2.5%
inhibition ([21]; compound 0.02 µM): -1.3%
inhibition ([21]; compound 0.2 µM): 6.4%
inhibition ([22]; compound 0.02 µM): -0.8%
inhibition ([22]; compound 0.2 µM): 2.2%
inhibition ([23]; compound 0.02 µM): -12.2%
inhibition ([23]; compound 0.2 µM): 4.4%
inhibition ([24]; compound 0.02 µM): -3%
inhibition ([24]; compound 0.2 µM): -1.8%
inhibition ([25]; compound 0.02 µM): -4.4%
inhibition ([25]; compound 0.2 µM): 2.8%
inhibition ([26]; compound 0.02 µM): -1.8%
inhibition ([26]; compound 0.2 µM): -4.2%
inhibition ([27]; compound 0.02 µM): 1.3%
inhibition ([27]; compound 0.2 µM): 14.1%
inhibition ([28]; compound 0.02 µM): -7.4%
inhibition ([28]; compound 0.2 µM): 1.4%
inhibition ([29]; compound 0.02 µM): -2.3%
inhibition ([29]; compound 0.2 µM): 8.8%
inhibition ([30]; compound 0.02 µM): -3.5%
inhibition ([30]; compound 0.2 µM): 0.9%
inhibition ([31]; compound 0.02 µM): -1.1%
inhibition ([31]; compound 0.2 µM): 2.7%

CCN(CC)CCNC(=O)c1c(C)[nH]c(/C=C2\C(=O)Nc3ccc(F)cc32)c1C
inhibition ([1]; compound 0.2 µM): 8.9%
inhibition ([1]; compound 4.0 µM): 55.4%
inhibition ([2]; compound 0.2 µM): 12.5%
inhibition ([2]; compound 4.0 µM): 74.1%
inhibition ([3]; compound 0.2 µM): 88.2%
inhibition ([3]; compound 4.0 µM): 101%
inhibition ([4]; compound 0.2 µM): -2.4%
inhibition ([4]; compound 4.0 µM): -8.5%
inhibition ([5]; compound 0.2 µM): 47.8%
inhibition ([5]; compound 4.0 µM): 95.7%
inhibition ([6]; compound 0.2 µM): 7.7%
inhibition ([6]; compound 4.0 µM): 66.3%
inhibition ([7]; compound 0.2 µM): 37.5%
inhibition ([7]; compound 4.0 µM): 96%
inhibition ([8]; compound 0.2 µM): -0.1%
inhibition ([8]; compound 4.0 µM): 47.5%
inhibition ([9]; compound 0.2 µM): 35.6%
inhibition ([9]; compound 4.0 µM): 90.4%
inhibition ([10]; compound 0.2 µM): -2.5%
inhibition ([10]; compound 4.0 µM): 8.9%
inhibition ([11]; compound 0.2 µM): 17.6%
inhibition ([11]; compound 4.0 µM): 82.3%
inhibition ([12]; compound 0.2 µM): 0.9%
inhibition ([12]; compound 4.0 µM): 0.1%
inhibition ([13]; compound 0.2 µM): 0% and -1.3%
inhibition ([13]; compound 4.0 µM): 20% and 27.2%
inhibition ([14]; compound 0.2 µM): 96%
inhibition ([14]; compound 4.0 µM): 104%
inhibition ([15]; compound 0.2 µM): 7.6%
inhibition ([15]; compound 4.0 µM): 31.6%
inhibition ([16]; compound 0.2 µM): -4.8%
inhibition ([16]; compound 4.0 µM): -0.9%
inhibition ([17]; compound 0.2 µM): 68.5%
inhibition ([17]; compound 4.0 µM): 84%
inhibition ([18]; compound 0.2 µM): 59.3%
inhibition ([18]; compound 4.0 µM): 95.2%
inhibition ([32]; compound 0.2 µM): 74.2%
inhibition ([32]; compound 4.0 µM): 99.3%
inhibition ([20]; compound 0.2 µM): 16.6%
inhibition ([20]; compound 4.0 µM): 62.5%
inhibition ([21]; compound 0.2 µM): 7.4%
inhibition ([21]; compound 4.0 µM): 30.3%
inhibition ([22]; compound 0.2 µM): 78.8%
inhibition ([22]; compound 4.0 µM): 98.8%
inhibition ([23]; compound 0.2 µM): 9%
inhibition ([23]; compound 4.0 µM): 65.3%
inhibition ([24]; compound 0.2 µM): 39.2%
inhibition ([24]; compound 4.0 µM): 89.7%
inhibition ([26]; compound 0.2 µM): 3.1%
inhibition ([26]; compound 4.0 µM): 42.9%
inhibition ([27]; compound 0.2 µM): 1.3%
inhibition ([27]; compound 4.0 µM): 31.2%
inhibition ([28]; compound 0.2 µM): 6%
inhibition ([28]; compound 4.0 µM): 45.2%
inhibition ([29]; compound 0.2 µM): 8.3%
inhibition ([29]; compound 4.0 µM): 49.2%
inhibition ([30]; compound 0.2 µM): 4.5%
inhibition ([30]; compound 4.0 µM): 41.2%
inhibition ([31]; compound 0.2 µM): 73.6%
inhibition ([31]; compound 4.0 µM): 99%
